Test results: patent US20260022094A1, “Compounds for the Treatment of Neurodegenerative Diseases” (Celgene Corporation, priority 2022, published 2026)

Target: T1, S1P5 receptors (Homo sapiens, UniProt Q9H228)
T1 construct: expressed in transfected cells; host or cells: CHO cells (membranes)
Experiment: [35S]-GTPγS binding assay on CHO-S1P5 membranes (S1P5 agonism)
Type: biochemical
Conditions: membranes of CHO cells expressing recombinant S1P5; measure of S1P5 agonism
Procedure: CHO cells expressing recombinant S1P5 receptors were cultured in 500 cm^2 culture trays and, once confluent, rinsed and detached with cell-lifting buffer (10 mM HEPES, 154 mM NaCl, 6.85 mM EDTA, pH 7.4). Cells were then pelleted by centrifugation, resuspended, and homogenized in membrane preparation buffer (10 mM HEPES and 10 mM EDTA, pH 7.4) using a Polytron PT 1200E homogenizer (Kinematica, Luzern, Switzerland). Cellular proteins were pelleted by centrifugation at 48,000×g at 4° C. for 30 minutes. The resulting supernatant was discarded, and the pellet was re-suspended again in membrane preparation buffer, homogenized for a second time, and then centrifuged again as described above. The final cellular protein pellet was suspended in ice cold resuspension buffer (10 mM HEPES and 0.1 mM EDTA, pH 7.4), divided into aliquots, and stored at −80° C. until use.
Functional binding assays for [^35S]-GTPγS were performed in 96-well non-binding surface plates with a final volume of 200 μL. The test compounds were serially diluted in DMSO and added to assay plates using a Tecan D300E digital printer with a total volume of 0.4 μL. The control sphingosine-1-phosphate (SIP) was prepared separately by preparing a 400 µM stock solution from a 100 nmol pellet of S1P in 10 mM Na2CO3 with 2% β-cyclodextrin. The serial dilution of S1P was done using complete assay buffer (20 mM HEPES, 10 mM MgCl2, 100 mM NaCl, 1 mM EDTA, 0.1% fatty acid free bovine serum albumin (BSA), and 30 μg/mL saponin, pH 7.4) and transferred to wells already containing 0.4 μL DMSO. All the wells were then loaded to a total volume of 40 μL of complete assay buffer, except the non-specific binding (NSB) wells. For NSB wells, 40 μL/well of 50 μM GTPγS (Sigma Aldrich, cat #G8634, St. Louis, MO) was added to wells containing 0.4 μL of DMSO. The assay was started by the addition of 120 μL/well of CHO-SIP receptor membrane solution containing 40 μg/mL of membrane protein, 16.67 μM guanosine diphosphate (GDP; Sigma Aldrich, cat #G7127, St. Louis, MO), and 2.5 mg/mL of WGA PVT SPA beads in complete buffer. Assay plates were then sealed and incubated at room temperature with gentle agitation for 30 minutes. Next, 40 μL/well of 1 nM of [^35S]-GTPγS (PerkinElmer, cat #NEG030X^250UC, Waltham, MA) in basic assay buffer (20 mM HEPES, 10 mM MgCl2, 100 mM NaCl, and 1 mM EDTA, pH7.4) was added to the assay plates to yield a final concentration of […] and the plates were further incubated for 40 minutes at room temperature with gentle agitation. The assay was terminated by centrifugation of the plates at 1000 rpm for 3 minutes using an Eppendorf 5810R centrifuge (Eppendorf, Hamburg, Germany) and G protein bound radioactivity was quantitated using a MicroBeta2 microplate scintillation counter (PerkinElmer, Waltham, MA). As G protein bound radioactivity directly correlates to receptor activation and coupling to the G protein, this assay is a measure of S1P5 agonism.

T1 sequence (Q9H228 whole entry): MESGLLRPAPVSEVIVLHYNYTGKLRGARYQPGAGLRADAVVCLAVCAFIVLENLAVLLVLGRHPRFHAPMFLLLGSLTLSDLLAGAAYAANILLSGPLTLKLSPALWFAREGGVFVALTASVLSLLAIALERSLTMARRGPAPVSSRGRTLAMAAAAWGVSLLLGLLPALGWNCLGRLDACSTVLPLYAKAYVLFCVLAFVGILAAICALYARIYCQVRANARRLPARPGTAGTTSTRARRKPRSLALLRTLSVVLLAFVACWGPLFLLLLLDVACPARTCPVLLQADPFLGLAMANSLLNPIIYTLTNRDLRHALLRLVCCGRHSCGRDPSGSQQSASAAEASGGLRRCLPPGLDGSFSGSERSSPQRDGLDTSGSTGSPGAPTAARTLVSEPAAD

SMILES	EC50 [nM]
CC1(O)CN(Cc2ccc(N3CC(c4c(Cl)cccc4Cl)C3)cc2)C1 [Compound 33, 1-(4-(3-(2,6-dichlorophenyl)azetidin-1-yl)benzyl)-3-methylazetidin-3-ol]	100 to 1000
CC1(O)CN(Cc2ccc(N3CC(c4c(Cl)cccc4Cl)C3)nc2)C1 [Compound 64, 1-((6-(3-(2,6-dichlorophenyl)azetidin-1-yl)pyridin-3-yl)methyl)-3-methylazetidin-3-ol]	100 to 1000
CC1(O)CCN(C2CCc3cc(C4CN(c5c(Cl)cccc5Cl)C4)ccc32)C1 (stereo not drawn) [Compound 9, 1-(5-(1-(2,6-dichlorophenyl)azetidin-3-yl)-2,3-dihydro-1H-inden-1-yl)-3-methylpyrrolidin-3-ol]	100 to 1000
Cc1c(C#Cc2cccc(F)c2)ccc2c1CCC2N1CC(C)(O)C1 (single isomer, unassigned) [Compound 17a, 1-[5-[2-(3-fluorophenyl)ethynyl]-4-methyl-indan-1-yl]-3-methyl-azetidin-3-ol]	10 to 100
Cc1cc(-c2ccc(C3CC3)c(Cl)c2)c(C)c2c1C(N1CC(C)(O)C1)CC2 (single isomer, unassigned) [Compound 26a, 1-[5-(3-chloro-4-cyclopropyl-phenyl)-4,7-dimethyl-indan-1-yl]-3-methyl-azetidin-3-ol]	1 to 10
Cc1c(OCc2c(Cl)cccc2Cl)ccc2c1CCC2N1CC(C)(O)C1 (single isomer, unassigned) [Compound 19b, 1-[5-[(2,6-dichlorophenyl)methoxy]-4-methyl-indan-1-yl]-3-methyl-azetidin-3-ol]	1 to 10
Cc1cc(C#Cc2cccc(F)c2)cc2c1C(N1CC(C)(O)C1)CC2 (single isomer, unassigned) [Compound 13b, 1-[5-[2-(3-fluorophenyl)ethynyl]-7-methyl-indan-1-yl]-3-methyl-azetidin-3-ol]	10 to 100
Cc1cc2c(cc1CCc1c(Cl)cccc1Cl)CCC2N1CC(C)(O)C1 (single isomer, unassigned) [Compound 23b, 1-[5-[2-(2,6-dichlorophenyl)ethyl]-6-methyl-indan-1-yl]-3-methyl-azetidin-3-ol]	10 to 100
CC1(O)CCN(C2CCc3cc(-c4ccc(C5CC5)c(Cl)c4)ccc32)CC1 (stereo not drawn) [Compound 6, 1-(5-(3-chloro-4-cyclopropylphenyl)-2,3-dihydro-1H-inden-1-yl)-4-methylpiperidin-4-ol]	1000 to 10000
CC1(O)CN(C2CCc3cc(-c4ccc(C5CC5)c(Cl)c4)ccc32)C1 (single isomer, unassigned) [Compound 5b, 1-[5-(3-chloro-4-cyclopropyl-phenyl)indan-1-yl]-3-methyl-azetidin-3-ol]	10 to 100
Cc1cc(C2CN(c3c(Cl)cccc3Cl)C2)cc(C)c1CN1CC(O)(CF)C1 [Compound 39, 1-(4-(1-(2,6-dichlorophenyl)azetidin-3-yl)-2,6-dimethylbenzyl)-3-(fluoromethyl) azetidin-3-ol]	100 to 1000
Cc1cc(C2CN(c3c(Cl)cccc3Cl)C2)cc(C)c1CN1CC(C)(O)C1 [Compound 35, 1-[[4-[1-(2,6-dichlorophenyl)azetidin-3-yl]-2,6-dimethyl-phenyl]methyl]-3-methyl-azetidin-3-ol]	10 to 100
CC(C)c1cc(C2CN(c3c(Cl)cccc3Cl)C2)cc(C(C)C)c1CN1CC(C)(O)C1 [Compound 53, 1-(4-(1-(2,6-dichlorophenyl)azetidin-3-yl)-2,6-diisopropylbenzyl)-3-methylazetidin-3-ol]	1000 to 10000
Cc1c(-c2ccc(C3CC3)c(Cl)c2)cc2c(c1C)C(N1CC(C)(O)C1)CC2 (single isomer, unassigned) [Compound 27b, 1-(5-(3-chloro-4-cyclopropylphenyl)-6,7-dimethyl-2,3-dihydro-1H-inden-1-yl)-3-methylazetidin-3-ol]	10 to 100
Cc1c(-c2ccc(C3CC3)c(Cl)c2)ccc2c1CCC2N1CC(C)(O)C1 (single isomer, unassigned) [Compound 16a, 1-[5-(3-chloro-4-cyclopropyl-phenyl)-4-methyl-indan-1-yl]-3-methyl-azetidin-3-ol]	1 to 10
CC1(O)CCN(Cc2ccc(C3CN(c4c(Cl)cccc4Cl)C3)cc2)CC1 [Compound 30, 1-(4-(1-(2,6-dichlorophenyl)azetidin-3-yl)benzyl)-4-methylpiperidin-4-ol]	1000 to 10000
Cc1cc(C2CN(c3c(F)cccc3F)C2)cc(C)c1CN1CC(C)(O)C1 [Compound 42, 1-(4-(1-(2,6-difluorophenyl)azetidin-3-yl)-2,6-dimethylbenzyl)-3-methylazetidin-3-ol]	10 to 100
Cc1c(OCc2c(Cl)cccc2Cl)ccc2c1CCC2N1CC(C)(O)C1 (single isomer, unassigned) [Compound 19a, 1-[5-[(2,6-dichlorophenyl)methoxy]-4-methyl-indan-1-yl]-3-methyl-azetidin-3-ol]	1 to 10
Cc1cc(OCc2c(Cl)cccc2Cl)cc2c1C(N1CC(C)(O)C1)CC2 (single isomer, unassigned) [Compound 15a, 1-[5-[(2,6-dichlorophenyl)methoxy]-7-methyl-indan-1-yl]-3-methyl-azetidin-3-ol]	1 to 10
Cc1cc(C2CN(c3ccc(C4CC4)c(Cl)c3)C2)cc(C)c1CN1CC(C)(O)C1 [Compound 46, 1-(4-(1-(3-chloro-4-cyclopropylphenyl)azetidin-3-yl)-2,6-dimethylbenzyl)-3-methylazetidin-3-ol]	100 to 1000
CC1(O)CN(Cc2ccc(N3CC(c4c(Cl)cccc4Cl)C3)cc2F)C1 [Compound 65, 1-(4-(3-(2,6-dichlorophenyl)azetidin-1-yl)-2-fluorobenzyl)-3-methylazetidin-3-ol]	10 to 100
Cc1cc2c(cc1C#Cc1cccc(F)c1)CCC2N1CC(C)(O)C1 (single isomer, unassigned) [Compound 22a, 1-[5-[2-(3-fluorophenyl)ethynyl]-6-methyl-indan-1-yl]-3-methyl-azetidin-3-ol]	10 to 100
Cc1cc(CN2CC(C)(O)C2)cc(C)c1N1CC(c2c(Cl)cccc2Cl)C1 [Compound 63, 1-(4-(3-(2,6-dichlorophenyl)azetidin-1-yl)-3,5-dimethylbenzyl)-3-methylazetidin-3-ol]	1 to 10
Cc1cc(C2CN(c3c(Cl)cccc3Cl)C2)cc(C)c1CN1CC(O)(C(F)F)C1 [Compound 40, 1-(4-(1-(2,6-dichlorophenyl)azetidin-3-yl)-2,6-dimethylbenzyl)-3-(difluoromethyl) azetidin-3-ol]	100 to 1000
Cc1cc2c(cc1-c1ccc(C3CC3)c(Cl)c1)CCC2N1CC(C)(O)C1 (single isomer, unassigned) [Compound 21b, 1-[5-(3-chloro-4-cyclopropyl-phenyl)-6-methyl-indan-1-yl]-3-methyl-azetidin-3-ol]	1 to 10
Cc1cc(CN2CC(C)(O)C2)cc(C)c1C1CN(c2c(Cl)cccc2Cl)C1 [Compound 57, 1-(4-(1-(2,6-dichlorophenyl)azetidin-3-yl)-3,5-dimethylbenzyl)-3-methylazetidin-3-ol]	10 to 100
Cc1cc(C2CN(c3ccccc3F)C2)cc(C)c1CN1CC(C)(O)C1 [Compound 44, 1-(4-(1-(2-fluorophenyl)azetidin-3-yl)-2,6-dimethylbenzyl)-3-methylazetidin-3-ol]	1000 to 10000
CC1(O)CN(Cc2ccc(C3CN(c4c(Cl)cccc4Cl)C3)nc2)C1 [Compound 58, 1-((6-(1-(2,6-dichlorophenyl)azetidin-3-yl)pyridin-3-yl)methyl)-3-methylazetidin-3-ol]	1000 to 10000
Cc1c(OCc2c(Cl)cccc2Cl)ccc2c1CCC2NCC(C)(C)O (single isomer, unassigned) [Compound 20b, 1-((5-((2,6-dichlorobenzyl)oxy)-4-methyl-2,3-dihydro-1H-inden-1-yl)amino)-2-methylpropan-2-ol]	100 to 1000
CC1(O)CN(Cc2ccc(C3CN(c4c(Cl)cccc4Cl)C3)c3ccccc23)C1 [Compound 55, 1-((4-(1-(2,6-dichlorophenyl)azetidin-3-yl)naphthalen-1-yl)methyl)-3-methylazetidin-3-ol]	10 to 100
